“Also recorded” adds a separate entry of the source. Read-outs that look alike come from different tables or passages of the source.

Format in all cases: cell-based
For assay [1], the system named is AR-V7-mediated PSA promoter-driven transcription in PC3-AR-V7-GFP cells. In words: PSA6.1 promoter driven luciferase reporter assay in PC3-AR-V7-GFP cells. As to the method:
PSA6.1 Promoter Driven Luciferase Reporter Assay in PC3-AR-V7-GFP Cells: PC3-AR-V7-GFP cells were bulk transfected with a mixture of FuGENE® HD transfection agent and the PSA-6.1-Luc reporter plasmid (20 ng/well) combined at a 3:1 (μL:μg) ratio in Opti-MEM™ medium (Gibco, Gaithersburg, MD) that had been incubated for 25 min at RT before being added to PC3-AR-V7-GFP cells that were suspended in RPMI 1640 (Gibco) media containing 1% L-glutamine (Invitrogen), and 10% fetal bovine serum (Gemini Bio-products). Bulk transfected PC3-AR-V7-GFP cells were seeded into white opaque 384-well assay plates (Greiner Bio-one, #781080) at 3,000 cells per well in a volume of 40 μL and incubated at 5% CO2, 37° C., and 95% humidity for 24 h. After 24 h, 5 μL of compounds were transferred to assay wells and the plates were returned to the incubator for an additional 24 h before 25 μL of BrightGlo® luciferase reagent (Promega) was added to the wells and the RLU's were captured on a SpectraMax® M5e plate reader (Molecular Devices LLC) as described previously (Fancher et al., Assay Drug Dev Technol. 2019, 17:364-386).
In general terms: Reporter assays use an easily measured gene product as a stand-in for the process of interest.

For another assay, the target named is T1, AR (Homo sapiens, UniProt P10275, T878A).
T1 construct: the amount of soluble AR protein in heat shocked C4-2 cell lysates; endogenous in cells; host or cells: C4-2 castration resistant prostate cancer cells
T1 sequence (P10275 1-920 T878A): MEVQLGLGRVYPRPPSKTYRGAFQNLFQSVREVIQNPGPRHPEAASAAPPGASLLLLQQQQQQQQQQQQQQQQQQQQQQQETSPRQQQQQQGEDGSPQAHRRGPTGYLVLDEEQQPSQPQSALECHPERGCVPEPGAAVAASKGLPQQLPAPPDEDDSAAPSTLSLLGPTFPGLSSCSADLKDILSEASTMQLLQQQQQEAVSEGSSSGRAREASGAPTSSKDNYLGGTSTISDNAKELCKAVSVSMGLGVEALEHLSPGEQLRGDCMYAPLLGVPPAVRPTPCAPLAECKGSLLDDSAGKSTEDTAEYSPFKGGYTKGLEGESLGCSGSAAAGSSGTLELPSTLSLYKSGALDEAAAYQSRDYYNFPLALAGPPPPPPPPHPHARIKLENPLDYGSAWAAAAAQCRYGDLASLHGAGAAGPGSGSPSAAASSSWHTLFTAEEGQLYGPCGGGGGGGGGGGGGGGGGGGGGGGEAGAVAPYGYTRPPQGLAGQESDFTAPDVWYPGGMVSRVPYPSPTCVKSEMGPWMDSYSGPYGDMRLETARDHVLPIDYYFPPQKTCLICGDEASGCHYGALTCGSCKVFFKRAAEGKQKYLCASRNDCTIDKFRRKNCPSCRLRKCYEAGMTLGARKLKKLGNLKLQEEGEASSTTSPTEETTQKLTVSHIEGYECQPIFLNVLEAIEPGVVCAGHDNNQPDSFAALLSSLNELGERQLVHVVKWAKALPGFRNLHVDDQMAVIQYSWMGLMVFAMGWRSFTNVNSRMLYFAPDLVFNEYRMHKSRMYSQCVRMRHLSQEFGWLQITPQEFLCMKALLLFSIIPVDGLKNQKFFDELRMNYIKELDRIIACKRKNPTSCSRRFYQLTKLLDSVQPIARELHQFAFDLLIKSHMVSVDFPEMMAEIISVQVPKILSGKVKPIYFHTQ
In words: AlphaScreen cellular thermal shift assay (CETSA) for AR target engagement in C4-2 cells. To be noted: for IC50: read-out: IC50, inhibition of DHT-induced AR stability at 46° C.; for DHT-enhanced AR stability at 46° C.: 20 μM and 50 μM compound; for Right shift of the DHT EC50: 20 or 50 μM compound; for AR thermal stability at 46° C., compound alone / DHT-induced (DHT-enhanced) AR thermal stability at 46° C.: C4-2 cells; for AR thermal stability at 46° C., compound alone: 20 μM where stated, 46° C. for 5 min; for DHT-induced (DHT-enhanced) AR thermal stability at 46° C.: compound 20 μM where stated, 10 nM DHT; for Maximum efficacy of DHT-enhanced AR thermal stabilization: S2-6 at 20 or 50 μM, S3-11 at 50 μM. As to the method:
Mouse anti-hAR (BD Biosciences, San Jose, CA) and rabbit anti-hAR (MilliporeSigma, Burlington, MA) were diluted 1:330 and 1:1000 fold respectively in PBS containing 0.5 mg/mL BSA and 4 μL of the combined diluted AR antibody pair were added to 4 μL of the cell lysate supernatant in a 384-well plate and incubated in the dark for 30 min at room temperature. To each well of the 384-well plate 4 μL of a combined solution of anti-mouse IgG Alpha Donor and anti-rabbit IgG (Fc specific) AlphaLISA® Acceptor beads (Perkin Elmer, Waltham, MA) suspended in 1× lysis buffer was added to yield a final donor and acceptor bead concentrations of 40 μg/mL and 10 μg/mL respectively.

The test system of assay [2] is DHT-induced AR-mediated PSA promoter-driven transcription in PC3-AR-FL-GFP cells. In words: PSA promoter-driven transcription in PC3-AR-FL-GFP cells. Here is the method: Compounds 1-5 were assessed to determine whether each compound could block DHT-induced AR-TIF2 PPI (protein-protein interaction complex) formation and/or disrupt preformed DHT-induced AR-TIF2 PPIs. Additionally, the following activities were evaluated: • inhibition of DHT-induced AR-mediated PSA promoter-driven transcription in C4-2 CRPC cells; • inhibition of DHT-induced AR-LBD PPI interactions with TIF2 and SRC1 coactivators; • inhibition of DHT-induced AR-LBD PPI interactions with TIF2 Box III-LXXLL peptide; • inhibition of H^3-DHT binding to AR-LBD; • inhibition of DHT-induced AR-mediated PSA promoter-driven transcription in PC3-AR-FL-GFP cells; • inhibition of constitutive AR-V7-mediated PSA promoter-driven transcription in PC3-AR-V7 GFP cells; • inhibition of constitutive UBE2C promoter-driven transcription in PC3-AR-V7 GFP cells; • inhibition of growth in AR-negative prostate cancer (PCa) cell lines PC3 and DU145; and • inhibition of growth in AR-positive PCa cell lines LNCap, C4-2 (CRPC), and 22Rv1 (CRPC).

Assay [3] relates to DHT-induced full length AR PSA promoter-driven transcription in C4-2 CRPC cells. As to the kind of experiment: PSA-6.1 luciferase reporter assay in C4-2 CRPC cells. As to the method: Prostate Specific Antigen (PSA)-6.1 Luciferase Reporter Assay in the C4-2 CRPC Cell Line: The PSA-6.1-Luc luciferase reporter plasmid was provided by Dr. Zhou Wang in the Urology department of the University of Pittsburgh Cancer Institute. The PSA-6.1-Luc reporter is controlled by a fragment of the PSA promoter that contains at least three AREs. The PSA-6.1-Luc plasmid (12 ng/well) was combined with FuGENE® 6 transfection agent at a ratio 6:1 in SFM and incubated for 25 minutes at room temperature before being combined with C4-2 cells suspended in RPMI 1640 media containing 1% penicillin-streptomycin, 1% L-glutamine, and 10% FBS. Transfected cells were then seeded into white opaque 384-well assay plates (Greiner Bio-one, #781080) at 6,000 cells per well in a volume of 30 μL and incubated in 5% CO2, 37° C., and 95% humidity for 24 h.

Where [4] appears, read: 24 h, 24 h exposure, read-out: IC50 in PSA-Luc AR-V7 reporter assay (potency range in words).
[5] abbreviates: C4-2, 24 h, 24 h exposure, read-out: IC50 in PSA-Luc reporter assay, C4-2 cells (potency range in words).
Setting [6] is: C4-2 CRPC cells, read-out: Inhibition of DHT-induced full length AR PSA reporter IC50.
The mark [7] stands for this setting: PC3-AR-V7-GFP cells, constitutive, read-out: Inhibition AR-V7 PSA-reporter IC50.
[8] abbreviates: b132, read-out: IC50, DHT-induced AR-mediated PSA promoter-driven transcription in C4-2 CRPC cells.

For the molecule `Cc1c(-c2ccccc2F)[nH]c2ccc(CNC(=O)c3ccc(CO)o3)cc12` [Compound S3-14], the IC50 – broadly, the concentration at which inhibition is half-maximal – in assay [1] (setting [4]) is 10 to 100 µM; on AR (b133, unit inferred), 9.46 µM; in assay [2] it was ~50 µM.
For the molecule `Cc1cccc2c(-c3ccc(O)c(F)c3)c[nH]c12` [Compound S3-17], the IC50 in assay [1] (setting [4]) was 10 to 100 µM; in assay [3] (setting [5]) it was 1 to 10 µM; on AR, 9.46 µM; in assay [2], ~50 µM. The “DHT-enhanced AR stability at 46° C.” value on AR is recorded as “inhibited DHT-enhanced AR stability”.
Regarding `COc1cc(-c2ccc(C)s2)cc2c1OCCN(c1nc(C(N)=O)cs1)C2` [Compound S1-5], the IC50 in assay [3] (setting [6]) is < 37 µM.
In the case of `Cc1nc(N)cc(N2CCOc3c(O)cc(-c4ccccc4C)cc3C2)n1` [Compound S1-2], the IC50 in assay [1] (setting [7]) is 12.2 µM; in assay [3] (setting [6]), < 37 µM; in assay [2], < 44 µM.
Consider `Cc1nsc(NC(=O)N2CCC(Sc3ccccc3C)CC2)n1` [Compound S2-6], for which, at AR, the “DHT-enhanced AR stability at 46° C.” value is on record as “inhibited DHT-enhanced AR stability”; the “Right shift of the DHT EC50” value is > 10 fold; the “AR thermal stability at 46° C., compound alone” value is given as “did not stabilize AR”; the “DHT-induced (DHT-enhanced) AR thermal stability at 46° C.” value (from here on “DHT-induced”) was “blocked DHT-enhanced AR thermal stabilization; also recorded: inhibition of DHT-enhanced AR thermal stability”. On AR, the “Maximum efficacy of DHT-enhanced AR thermal stabilization” value was “reduced the maximum efficacy of DHT-enhanced AR thermal stabilization” and the IC50 was 4.1 µM. On AR (listed as 6), the “AR thermal stability at 46° C., compound alone” value was “did not enhance AR stability” and the “DHT-induced” value was “inhibited DHT-induced AR stability”. In addition, the IC50 in assay [2] is ~28 µM.
As to `Cc1ccccc1-c1cc(O)c2c(c1)CN(c1cc(N)ncn1)CCO2` [Compound S1-4], in assay [3] (setting [6]), the IC50 is < 37 µM.
Consider `Cc1ccccc1-c1cc(O)c2c(c1)CN(c1nccs1)CCO2` [Compound S1-3], for which the concentration for half-maximal inhibition (IC50) in assay [3] (setting [6]) is < 37 µM.
Consider `Cc1ccccc1-c1cc(O)c2c(c1)CN(c1nc(C(N)=O)cs1)CCO2` [Compound S1-1], for which the IC50 in assay [3] (C4-2 CRPC cells, listed as 1, read-out: Inhibition of DHT-induced full length AR PSA reporter IC50) was 5.27 µM. Moreover, at AR, the “AR thermal stability at 46° C., compound alone” value is on record as “did not stabilize AR” and the “DHT-induced” value is on record as “blocked DHT-enhanced AR thermal stabilization; also recorded: inhibition of DHT-enhanced AR thermal stability”. Moreover, the concentration for half-maximal inhibition (IC50) in assay [2] was < 44 µM.
`Cc1c(-c2ccc(F)cc2)[nH]c2ccc(CNC(=O)c3ccc(CO)o3)cc12` [Compound S3-15]: the IC50 in assay [1] (setting [4]) is 1 to 10 µM; in assay [3] (setting [5]), 1 to 10 µM; at AR, 86.1 µM; in assay [2], ~10 µM.
Consider `CNC(=O)c1ccc(-c2c[nH]c3c(C)cccc23)cc1` [Compound S3-21], for which the IC50 in assay [1] (setting [7]) was > 100 µM; in assay [3] (setting [5]), 10 to 100 µM; in assay [3] (setting [8]), 40 to 59 µM; in assay [2], > 100 µM.
Take `CC(=O)NCCC(=O)NCc1ccc2[nH]c(-c3ccccc3F)c(C)c2c1` [Compound S3-13]: the half-maximal inhibitory concentration (IC50) in assay [1] (setting [4]) was 10 to 100 µM; in assay [3] (setting [8]), 40 to 59 µM; in assay [2], > 100 µM.
In the case of `Cc1c(-c2ccccc2F)[nH]c2ccc(CNC(=O)CCc3cn[nH]c3)cc12` [Compound S3-11], the IC50 in assay [1] (setting [4]) lay within 10 to 100 µM. The half-maximal inhibitory concentration (IC50) in assay [1] (setting [7]) stood at 3.13 µM. Moreover, the IC50 in assay [3] (setting [5]) lay within 1 to 10 µM. Also, the IC50 in assay [3] (setting [6]) was found to be 4.21 µM. Further, at AR, the “DHT-enhanced AR stability at 46° C.” value is listed as “inhibited DHT-enhanced AR stability”; the “Right shift of the DHT EC50” value is given as ≥ 10 fold; the “AR thermal stability at 46° C., compound alone” value is listed as “did not stabilize AR”; the “DHT-induced” value is given as “blocked DHT-enhanced AR thermal stabilization; also recorded: inhibition of DHT-enhanced AR thermal stability”. For the same molecule, at AR, the “Maximum efficacy of DHT-enhanced AR thermal stabilization” value is recorded as “reduced the maximum efficacy of DHT” and the IC50 was found to be 29.9 µM. For the same molecule, the IC50 in assay [2] was ~50 µM.
For the molecule `Cc1c(-c2ccccc2F)[nH]c2ccc(CNC(=O)CCc3cnccn3)cc12` [Compound S3-12], the IC50 in assay [1] (setting [4]) is 1 to 10 µM; in assay [3] (setting [5]), 1 to 10 µM; on AR it was 52.6 µM; in assay [2], > 100 µM.

The values above are taken from patent US20260083751A1, “ALLOSTERIC MODULATORS OF ANDROGEN RECEPTOR COACTIVATOR RECRUITMENT FOR CRPC THERAPY” (University of Pittsburgh – Of the Commonwealth System of …, priority 2022, published 2026).
